Experiments:
[1] = system: ENR+CD organoids (ISC to Paneth cell differentiation); test: Primary screen: CCh-stimulated lysozyme secretion LYZ.S, 2.5-D 384-well ENR+CD organoid differentiation; type: cell-based, mouse; conditions: primary screen
Source text: (§1) High-throughput screening.

ENR+CD organoids = test: Primary screen: ATP (CellTiter-Glo 3D, CTG) cell number/viability, 2.5-D 384-well ENR+CD organoids; conditions: primary screen; for Z.CTG: standard z score;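 for all read-outs here: compounds given at plating and again on day 3 over a 6-day differentiation from ENR+CV stem-cell-enriched precursors, ATP measured on day 6, plate median as control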
[2] = system: ENR+CD organoids (ISC to Paneth cell differentiation); test: Primary screen: basal (non-stimulated) lysozyme secretion LYZ.NS, 2.5-D 384-well ENR+CD organoid differentiation; type: cell-based, mouse; conditions: primary screen; for Z.LYZ.NS: standard z score
Source text: as §1

[3] = dose 0.08 uM, FC relative to plate median
[4] = dose 0.40 uM, FC relative to plate median
[5] = dose 2.00 uM, FC relative to plate median
[6] = dose 10.00 uM, FC relative to plate median
[7] = dose 0.08 uM, FC vs plate median
[8] = dose 0.40 uM, FC vs plate median
[9] = dose 2.00 uM, FC vs plate median
[10] = dose 10.00 uM, FC vs plate median
[11] = 1st dose row of the treatment (0.08 uM by row order; dose not reprinted)
[12] = 2nd dose row of the treatment (0.40 uM by row order; dose not reprinted)
[13] = 3rd dose row of the treatment (2.00 uM by row order; dose not reprinted)
[14] = 4th dose row of the treatment (10.00 uM by row order; dose not reprinted)

In the case of `CN(C)C(=O)Nc1cccc(-c2ccc(N(C)C)cc2)c1` [Atglistatin], the Dose.FC.LYZ.S ([1]; dose 0.08 uM) is reported as 0.028 log2 fold change, the Dose.FC.LYZ.S ([1]; dose 0.40 uM) is reported as −0.035 log2 fold change and the Dose.FC.LYZ.S ([1]; dose 2.00 uM) is reported as 0.026 log2 fold change. The Dose.FC.LYZ.S ([1]; dose 10.00 uM) was 0.012 log2 fold change, the Dose.FC.CTG (ENR+CD organoids; dose 0.08 uM) was 0.057 log2 fold change and the “Z.CTG (standard z score)” value (ENR+CD organoids; dose 0.08 uM) was 0.137. The Dose.FC.CTG (ENR+CD organoids; dose 0.40 uM) was 0.004 log2 fold change, the “Z.CTG (standard z score)” value (ENR+CD organoids; dose 0.40 uM) was 0.009 and the Dose.FC.CTG (ENR+CD organoids; dose 2.00 uM) was −0.045 log2 fold change. The “Z.CTG (standard z score)” value (ENR+CD organoids; dose 2.00 uM) was −0.108, the Dose.FC.CTG (ENR+CD organoids; dose 10.00 uM) was −0.431 log2 fold change and the “Z.CTG (standard z score)” value (ENR+CD organoids; dose 10.00 uM) was −1.031. For the same molecule, the Dose.FC.LYZ.NS ([2]; dose 0.08 uM) was 0.069 log2 fold change, the “Z.LYZ.NS (standard z score)” value ([2]; dose 0.08 uM) was 0.604 and the Dose.FC.LYZ.NS ([2]; dose 0.40 uM) was 0.135 log2 fold change. For the same molecule, the “Z.LYZ.NS (standard z score)” value ([2]; dose 0.40 uM) was 1.176, the Dose.FC.LYZ.NS ([2]; dose 2.00 uM) was 0.070 log2 fold change and the “Z.LYZ.NS (standard z score)” value ([2]; dose 2.00 uM) was 0.613. For the same molecule, the Dose.FC.LYZ.NS ([2]; dose 10.00 uM) was −0.016 log2 fold change and the “Z.LYZ.NS (standard z score)” value ([2]; dose 10.00 uM) was −0.142.
In the case of `O=C(NNc1nc2cc(F)ccc2n2cccc12)c1cnccn1` [SC144], the Dose.FC.LYZ.S [1, 3] is reported as 0.098 log2 fold change, the Dose.FC.LYZ.S [1, 4] is reported as 0.014 log2 fold change and the Dose.FC.LYZ.S [1, 5] is reported as −0.131 log2 fold change. For the same molecule, the Dose.FC.LYZ.S [1, 6] was −0.211 log2 fold change, the Dose.FC.CTG (ENR+CD organoids; [3]) was 0.160 log2 fold change and the Z.CTG (ENR+CD organoids; dose 0.08 uM) was 0.381. For the same molecule, the Dose.FC.CTG (ENR+CD organoids; [4]) was 0.129 log2 fold change, the Z.CTG (ENR+CD organoids; dose 0.40 uM) was 0.309 and the Dose.FC.CTG (ENR+CD organoids; [5]) was −0.257 log2 fold change. The Z.CTG (ENR+CD organoids; dose 2.00 uM) was −0.613, the Dose.FC.CTG (ENR+CD organoids; [6]) was −0.885 log2 fold change and the Z.CTG (ENR+CD organoids; dose 10.00 uM) was −2.113. The Dose.FC.LYZ.NS [2, 3] was 0.067 log2 fold change, the Z.LYZ.NS ([2]; dose 0.08 uM) was 0.582 and the Dose.FC.LYZ.NS [2, 4] was −0.013 log2 fold change. For the same molecule, the Z.LYZ.NS ([2]; dose 0.40 uM) was −0.112, the Dose.FC.LYZ.NS [2, 5] was −0.025 log2 fold change and the Z.LYZ.NS ([2]; dose 2.00 uM) was −0.220. It also gave a Dose.FC.LYZ.NS [2, 6] of −0.156 log2 fold change and a Z.LYZ.NS ([2]; dose 10.00 uM) of −1.355.
`Nc1ncnc2c1c(-c1cccc(OCc3ccccc3)c1)cn2C1CC(CN2CCCC2)C1` (centres unmarked) [NVP-ADW742] showed a Dose.FC.LYZ.S [1, 7] of 0.245 log2 fold change, a Dose.FC.LYZ.S [1, 8] of 0.265 log2 fold change and a Dose.FC.LYZ.S [1, 9] of −0.166 log2 fold change. It also gave a Dose.FC.LYZ.S [1, 10] of −0.210 log2 fold change, a Z.CTG (ENR+CD organoids; dose 0.08 uM) of 1.622 and a Z.CTG (ENR+CD organoids; dose 0.40 uM) of 1.583. For the same molecule, the Z.CTG (ENR+CD organoids; dose 2.00 uM) was 0.614, the Z.CTG (ENR+CD organoids; dose 10.00 uM) was −1.112 and the Dose.FC.CTG (ENR+CD organoids; [7]) was 0.679 log2 fold change. It also gave a Dose.FC.CTG (ENR+CD organoids; [8]) of 0.663 log2 fold change, a Dose.FC.CTG (ENR+CD organoids; [9]) of 0.257 log2 fold change and a Dose.FC.CTG (ENR+CD organoids; [10]) of −0.465 log2 fold change. The Z.LYZ.NS ([2]; dose 0.08 uM) was 1.239, the Z.LYZ.NS ([2]; dose 0.40 uM) was 1.499 and the Z.LYZ.NS ([2]; dose 2.00 uM) was −0.823. For the same molecule, the Z.LYZ.NS ([2]; dose 10.00 uM) was −1.172, the Dose.FC.LYZ.NS [2, 7] was 0.142 log2 fold change and the Dose.FC.LYZ.NS [2, 8] was 0.172 log2 fold change. For the same molecule, the Dose.FC.LYZ.NS [2, 9] was −0.095 log2 fold change and the Dose.FC.LYZ.NS [2, 10] was −0.135 log2 fold change.
Work on VU 0357121 yielded a Dose.FC.LYZ.S ([1]; dose 0.08 uM) of 0.152 log2 fold change, a Dose.FC.LYZ.S ([1]; dose 0.40 uM) of 0.034 log2 fold change and a Dose.FC.LYZ.S ([1]; dose 2.00 uM) of 0.007 log2 fold change. For the same molecule, the Dose.FC.LYZ.S ([1]; dose 10.00 uM) was −0.034 log2 fold change, the Dose.FC.CTG (ENR+CD organoids; dose 0.08 uM) was 0.183 log2 fold change and the “Z.CTG (standard z score)” value (ENR+CD organoids; dose 0.08 uM) was 0.438. The Dose.FC.CTG (ENR+CD organoids; dose 0.40 uM) was 0.148 log2 fold change, the “Z.CTG (standard z score)” value (ENR+CD organoids; dose 0.40 uM) was 0.352 and the Dose.FC.CTG (ENR+CD organoids; dose 2.00 uM) was 0.012 log2 fold change. For the same molecule, the “Z.CTG (standard z score)” value (ENR+CD organoids; dose 2.00 uM) was 0.029, the Dose.FC.CTG (ENR+CD organoids; dose 10.00 uM) was −0.059 log2 fold change and the “Z.CTG (standard z score)” value (ENR+CD organoids; dose 10.00 uM) was −0.141. The Dose.FC.LYZ.NS ([2]; dose 0.08 uM) was 0.079 log2 fold change, the “Z.LYZ.NS (standard z score)” value ([2]; dose 0.08 uM) was 0.686 and the Dose.FC.LYZ.NS ([2]; dose 0.40 uM) was −0.010 log2 fold change. For the same molecule, the “Z.LYZ.NS (standard z score)” value ([2]; dose 0.40 uM) was −0.090, the Dose.FC.LYZ.NS ([2]; dose 2.00 uM) was 0.030 log2 fold change and the “Z.LYZ.NS (standard z score)” value ([2]; dose 2.00 uM) was 0.261. For the same molecule, the Dose.FC.LYZ.NS ([2]; dose 10.00 uM) was −0.027 log2 fold change and the “Z.LYZ.NS (standard z score)” value ([2]; dose 10.00 uM) was −0.237.
With `CN1CCc2cc3c(cc2[C@H]1[C@@H]1OC(=O)c2c1ccc1c2OCO1)OCO3` [(+)-Bicuculline] the “SSMD.LYZ.S_Rep (strictly standardized mean difference)” value [1, 11] was 0.545, the “Z.LYZ.S (standard z score)” value [1, 11] was 1.005 and the “SSMD.LYZ.S_Rep (strictly standardized mean difference)” value [1, 12] was 0.216. For the same molecule, the “Z.LYZ.S (standard z score)” value [1, 12] was 0.221, the “SSMD.LYZ.S_Rep (strictly standardized mean difference)” value [1, 13] was −0.164 and the “Z.LYZ.S (standard z score)” value [1, 13] was −0.169. The “SSMD.LYZ.S_Rep (strictly standardized mean difference)” value [1, 14] was 0.264, the “Z.LYZ.S (standard z score)” value [1, 14] was 0.465 and the Dose.FC.LYZ.S ([1]; dose 0.08 uM) was 0.155 log2 fold change. The Dose.FC.LYZ.S ([1]; dose 0.40 uM) was 0.034 log2 fold change, the Dose.FC.LYZ.S ([1]; dose 2.00 uM) was −0.026 log2 fold change and the Dose.FC.LYZ.S ([1]; dose 10.00 uM) was 0.072 log2 fold change. The “SSMD.CTG.Rep (strictly standardized mean difference)” value (ENR+CD organoids; [11]) was 0.472, the “SSMD.CTG.Rep (strictly standardized mean difference)” value (ENR+CD organoids; [12]) was −0.078 and the “SSMD.CTG.Rep (strictly standardized mean difference)” value (ENR+CD organoids; [13]) was −0.237. For the same molecule, the “SSMD.CTG.Rep (strictly standardized mean difference)” value (ENR+CD organoids; [14]) was −0.405, the Dose.FC.CTG (ENR+CD organoids; dose 0.08 uM) was 0.318 log2 fold change and the “Z.CTG (standard z score)” value (ENR+CD organoids; dose 0.08 uM) was 0.760. The Dose.FC.CTG (ENR+CD organoids; dose 0.40 uM) was −0.029 log2 fold change, the “Z.CTG (standard z score)” value (ENR+CD organoids; dose 0.40 uM) was −0.069 and the Dose.FC.CTG (ENR+CD organoids; dose 2.00 uM) was −0.166 log2 fold change. For the same molecule, the “Z.CTG (standard z score)” value (ENR+CD organoids; dose 2.00 uM) was −0.396, the Dose.FC.CTG (ENR+CD organoids; dose 10.00 uM) was −0.132 log2 fold change and the “Z.CTG (standard z score)” value (ENR+CD organoids; dose 10.00 uM) was −0.315. For the same molecule, the “SSMD.LYZ.NS_Rep (strictly standardized mean difference)” value [2, 11] was 0.481, the “SSMD.LYZ.NS_Rep (strictly standardized mean difference)” value [2, 12] was 0.106 and the “SSMD.LYZ.NS_Rep (strictly standardized mean difference)” value [2, 13] was 0.276. The “SSMD.LYZ.NS_Rep (strictly standardized mean difference)” value [2, 14] was 0.175, the Dose.FC.LYZ.NS ([2]; dose 0.08 uM) was 0.092 log2 fold change and the “Z.LYZ.NS (standard z score)” value ([2]; dose 0.08 uM) was 0.805. For the same molecule, the Dose.FC.LYZ.NS ([2]; dose 0.40 uM) was 0.013 log2 fold change, the “Z.LYZ.NS (standard z score)” value ([2]; dose 0.40 uM) was 0.116 and the Dose.FC.LYZ.NS ([2]; dose 2.00 uM) was 0.031 log2 fold change. The “Z.LYZ.NS (standard z score)” value ([2]; dose 2.00 uM) was 0.270, the Dose.FC.LYZ.NS ([2]; dose 10.00 uM) was 0.020 log2 fold change and the “Z.LYZ.NS (standard z score)” value ([2]; dose 10.00 uM) was 0.176.

From patent US20220323406A1, “METHODS AND COMPOSITIONS FOR DIFFERENTIATING STEM CELLS” (Massachusetts Institute of Technology, priority 2019, published 2022)
